Experimental data published in patent publication US20230365988A1, “MOUSE MODEL FOR BIO-IMAGING OF INFLAMMATORY SIGNALS, PREPARATION METHOD THEREFOR AND USE THEREOF” (KOREA MOUSE PHENOTYPING CENTER, priority 2020, published 2023).
Entries after “also recorded” stand apart in the source; their conditions may differ.

Legend:
[1] = test system: NF-κB; assay: Luciferase activity in LPS-treated bone marrow-derived macrophages of the myeloid-specific NF-κB reporter mouse; type: cell-based; conditions: 6 hours
Procedure: (§1) Macrophages, mononuclear cells, derived from the bone marrow of the mouse model established in Example <2-1> were differentiated, luciferase activity was confirmed, and NF-κ activity and luciferase protein expression were confirmed by Western blotting. In addition, 20 uM BAY 11-7082 (NF-kB inhibitor) was treated simultaneously with LPS in the same manner as above to evaluate the luciferase activity.
Particularly, the mouse was euthanized with CO2, the femur and tibia were obtained, and the bone marrow cavity was exposed. Then, RPMI 1640 culture medium (10% FBS, 1% penicillin, stretptomycin) containing M-CSF was passed through using a 1 ml syringe, and the contents were collected to make 6 ml of the culture medium. Thereafter, the contents were transferred to a Petri dish and cultured for 3 days at 37° C. under 5% CO2 conditions, and then the medium was replaced with fresh RPMI 1640 culture medium. After 3 days, the culture medium was removed from the Petri dish and washed with PBS (phosphate buffered saline). […] After 6 hours, the culture medium was removed, and 100 μl of HBSS (Hanks' Balanced Salt solution) containing D-luciferin was added to each well of the plate, and then the luciferase activity was evaluated.

[2] = test system: NF-κB; assay: PMA-induced ear edema model, luciferase imaging; type: in vivo; conditions: 2 μg PMA on left ear twice at a 24 hour interval, measured 24 hours later, Lyz2-Cre reporter mouse
Procedure: To confirm imaging of inflammatory signals in the mouse model established in Example <2-1>, ear edema was induced by treatment with PMA (phorbol 12-myristate 13-acetate), an inflammatory factor.
Particularly, the left ear of the mouse was treated with 2 μg/40 ? of PMA diluted in ethanol using a micropipette, and the right ear was treated with the same amount of ethanol (40 ? ). After 24 hours, the left ear was treated with 2 μg of PMA, and the right ear was treated with the same amount of ethanol (40 ? ). After another 24 hours, 100 ? of D-luciferin (15 mg/ml in PBS) was intraperitoneally administered using a 1 ml syringe, and luciferase signals were measured in the ears of the mouse under respiratory anesthesia with isoflurane.

[3] = test system: NF-κB; assay: DSS-induced colitis model, luciferase imaging; type: in vivo; conditions: 3% DSS as drinking water, days 3 and 5, Lyz2-Cre reporter mouse
Procedure: Colitis was induced by DSS (dextran sulfate sodium salt) in the mouse model established in Example <2-1>, and it was confirmed whether bio-imaging of inflammatory signals over time was possible.
Particularly, 6 g of DSS was added to sterilized tertiary distilled water and stirred for 60 minutes to prepare a 3% DSS aqueous solution. […] After the measurement, the 3% DSS aqueous solution was supplied as drinking water to the mice. While maintaining DSS supply, 100 ? of D-luciferin (15 mg/ ? in PBS) was intraperitoneally administered using a 1 ? syringe on the days after 3 and 5 days after the start of DSS supply, and luciferase signals were measured in the abdomen.

[4] = test system: NF-κB; assay: Western blotting of luciferase expression in LPS-treated bone marrow-derived macrophages; type: cell-based, mouse; conditions: LPS 10 ng/ml and 100 ng/ml, 6 hours
Procedure: as §1
For Western blotting, the detached cells were diluted in RPMI 1640 culture medium, and then distributed in a 6 well plate at the density of 70,000 cells/well, followed by culture. After 24 hours of culture, the experimental group was treated with LPS at the concentrations of 10 ng/ml and 100 ng/ml for 6 hours. The culture medium was removed and homogenized with a buffer containing 20 mM Tris-HCl (pH 7.4), 1% Triton X-100, 15 mM NaCl and protease inhibition cocktail, and centrifuged at 4° C., 13,000 g for 20 minutes. Then, SDS-PAGE (sodium dodecyl sulfate-polyacrylamide gel electrophoresis) was performed using the supernatant to separate proteins. The separated proteins were transferred to a PVDF membrane and blocked with TBST buffer (Tris-Buffered Saline, 0.1% TWEEN 20) containing 5% skim milk powder. […]

Cc1ccc(S(=O)(=O)/C=C/C#N)cc1 [BAY 11-7082]
LPS-increased luciferase signal activity (NF-kB activity) after inhibitor treatment ([1]; 20 uM BAY 11-7082 simultaneously with LPS (10 and 100 ng/ml)): inhibited; also recorded: suppressed

CCCCCCCCCCCCCC(=O)O[C@@H]1[C@@H](C)[C@@]2(O)[C@@H](C=C(CO)C[C@]3(O)C(=O)C(C)=C[C@@H]23)[C@@H]2C(C)(C)[C@]12OC(C)=O [PMA, phorbol 12-myristate 13-acetate]
luciferase signal in treated left ear compared to ethanol-treated right ear [2]: specifically strong

dextran sulfate sodium salt [DSS]
luciferase signal in the large intestine region of the abdomen [3]: strongly expressed

lipopolysaccharide [LPS]
luciferase signal activity ([1]; LPS 10 ng/ml and 100 ng/ml): increased by LPS dose-dependently
luciferase expression by Western blotting [4]: luciferase expression was increased
